Results published in patent US11564969B2, “Immunorhelin compounds for intracellular infections” (ISR IMMUNE SYSTEM REGULATION HOLDING AB (PUBL), priority 2017, dated 2023).
Square brackets hold non-standard residues; d marks the D form. Peptide text beside a SMILES is read from it. * marks the point of attachment. dHis(τ-Bn) = N[C@H](Cc1cn(Cc2ccccc2)cn1)C(=O)O; d2Nal = N[C@H](Cc1ccc2ccccc2c1)C(=O)O; pGlu = O=C1CC[C@@H](C(=O)O)N1; tBu = CC(C)(C)*

How the values were obtained:
[1] = Solubility analysis in PBS (Analysis Method B); format: physicochemical; conditions: pH 7.4
Method: The solubility of compounds of the invention was tested as described in the general methods. Solubility was then graded according to a rating between 1 to 5, where 1 is most soluble and 5 is least soluble.

GnRHR = molecular target: T1, GnRHR (Homo sapiens, UniProt P30968); conditions: 1000.0
T1 sequence (P30968 1-328): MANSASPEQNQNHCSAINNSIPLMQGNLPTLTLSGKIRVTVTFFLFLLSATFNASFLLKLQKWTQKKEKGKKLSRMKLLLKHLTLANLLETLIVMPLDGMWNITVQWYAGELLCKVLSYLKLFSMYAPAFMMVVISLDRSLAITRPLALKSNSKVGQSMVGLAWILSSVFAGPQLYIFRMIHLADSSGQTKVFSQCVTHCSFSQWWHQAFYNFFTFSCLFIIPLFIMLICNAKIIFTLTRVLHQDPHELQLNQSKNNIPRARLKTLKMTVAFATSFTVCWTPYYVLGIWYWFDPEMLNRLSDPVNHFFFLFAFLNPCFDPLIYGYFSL

Solubility grading [1] | GNRHR Stimulation at 1 μM (GnRHR) | Compound
4 | 72 percentage | NC(=O)CNC(=O)[C@@H]1CCCN1C(=O)[C@H](Cc1ccc(O)cc1)NC(=O)[C@H](Cc1c[nH]c2ccccc12)NC(=O)[C@@H](Cc1c[nH]c2ccccc12)NC(=O)[C@H](Cc1c[nH]cn1)NC(=O)[C@H](CO)NC(=O)[C@H](Cc1c[nH]c2ccccc12)NC(=O)[C@H](Cc1c[nH]cn1)NC(=O)[C@@H]1CCC(=O)N1 [Compound 65, pGlu-His-Trp-Ser-His-D-Trp-Trp-Tyr-Pro-Gly-amide] ([pGlu]HWSH[dW]WYPG-NH2)
2 | 105 percentage | CCNC(=O)[C@@H]1CCCN1C(=O)[C@H](Cc1ccc(O)cc1)NC(=O)[C@H](CC(C)C)NC(=O)[C@@H](CC(C)C)NC(=O)[C@H](Cc1ccc(O)cc1)NC(=O)[C@H](CO)NC(=O)[C@H](Cc1c[nH]c2ccccc12)NC(=O)[C@H](Cc1c[nH]cn1)NC(=O)[C@@H]1CCC(=O)N1 [Compound 45, pGlu-His-Trp-Ser-Tyr-D-Leu-Leu-Tyr-Pro-NHEt] ([pGlu]HWSY[dL]LYP-NHEt)
5 | 50 percentage | NC(=O)CNC(=O)[C@@H]1CCCN1C(=O)[C@H](Cc1ccc(O)cc1)NC(=O)[C@H](Cc1c[nH]c2ccccc12)NC(=O)[C@@H](Cc1c[nH]c2ccccc12)NC(=O)[C@H](Cc1ccc(O)cc1)NC(=O)[C@H](CO)NC(=O)[C@H](Cc1c[nH]c2ccccc12)NC(=O)[C@H](Cc1c[nH]cn1)NC(=O)[C@@H]1CCC(=O)N1 [Compound 64, pGlu-His-Trp-Ser-Tyr-D-Trp-Trp-Tyr-Pro-Gly-amide] ([pGlu]HWSY[dW]WYPG-NH2)
1 | 88 percentage | CCNC(=O)[C@@H]1CCCN1C(=O)[C@H](CCCNC(=N)N)NC(=O)[C@H](CC(C)C)NC(=O)[C@@H](COC(C)(C)C)NC(=O)[C@H](Cc1c[nH]cn1)NC(=O)[C@H](CO)NC(=O)[C@H](Cc1c[nH]c2ccccc12)NC(=O)[C@H](Cc1c[nH]cn1)NC(=O)[C@@H]1CCC(=O)N1 [Compound 6, pGlu-His-Trp-Ser-His-D-Ser(tBu)-Leu-Arg-Pro-NHEt] ([pGlu]HWSH[dS](tBu)LRP-NHEt)
2 | 95 percentage | CC(C)C[C@H](NC(=O)[C@@H](Cc1ccc2ccccc2c1)NC(=O)[C@H](Cc1c[nH]cn1)NC(=O)[C@H](CO)NC(=O)[C@H](Cc1c[nH]c2ccccc12)NC(=O)[C@H](Cc1c[nH]cn1)NC(=O)[C@@H]1CCC(=O)N1)C(=O)N[C@@H](Cc1ccc(O)cc1)C(=O)N1CCC[C@H]1C(=O)NCC(N)=O [Compound 28, pGlu-His-Trp-Ser-His-D-Nal-Leu-Tyr-Pro-Gly-amide] ([pGlu]HWSH[d2Nal]LYPG-NH2)
2 | 118 percentage | CCNC(=O)[C@@H]1CCCN1C(=O)[C@H](Cc1ccc(O)cc1)NC(=O)[C@H](CC(C)C)NC(=O)[C@@H](CC(C)C)NC(=O)[C@H](Cc1c[nH]cn1)NC(=O)[C@H](CO)NC(=O)[C@H](Cc1c[nH]c2ccccc12)NC(=O)[C@H](Cc1c[nH]cn1)NC(=O)[C@@H]1CCC(=O)N1 [Compound 48, pGlu-His-Trp-Ser-His-D-Leu-Leu-Tyr-Pro-NHEt] ([pGlu]HWSH[dL]LYP-NHEt)
1 | 78 percentage | CCNC(=O)[C@@H]1CCCN1C(=O)[C@H](Cc1ccc(O)cc1)NC(=O)[C@H](CC(C)C)NC(=O)[C@@H](COC(C)(C)C)NC(=O)[C@H](Cc1ccc(O)cc1)NC(=O)[C@H](CO)NC(=O)[C@H](Cc1c[nH]c2ccccc12)NC(=O)[C@H](Cc1c[nH]cn1)NC(=O)[C@@H]1CCC(=O)N1 [Compound 9, pGlu-His-Trp-Ser-Tyr-D-Ser(tBu)-Leu-Tyr-Pro-NHEt] ([pGlu]HWSY[dS](tBu)LYP-NHEt)
1 | 86 percentage | CC(C)C[C@H](NC(=O)[C@@H](Cc1c[nH]c2ccccc12)NC(=O)[C@H](Cc1c[nH]cn1)NC(=O)[C@H](CO)NC(=O)[C@H](Cc1c[nH]c2ccccc12)NC(=O)[C@H](Cc1c[nH]cn1)NC(=O)[C@@H]1CCC(=O)N1)C(=O)N[C@@H](CCCNC(=N)N)C(=O)N1CCC[C@H]1C(=O)NCC(N)=O [Compound 68, pGlu-His-Trp-Ser-His-D-Trp-Leu-Arg-Pro-Gly-amide] ([pGlu]HWSH[dW]LRPG-NH2)
1 | 12 percentage | NC(=O)CNC(=O)[C@@H]1CCCN1C(=O)[C@H](Cc1ccc(O)cc1)NC(=O)[C@H](Cc1c[nH]c2ccccc12)NC(=O)[C@@H](Cc1ccc2ccccc2c1)NC(=O)[C@H](Cc1ccc(O)cc1)NC(=O)[C@H](CO)NC(=O)[C@H](Cc1c[nH]c2ccccc12)NC(=O)[C@H](Cc1c[nH]cn1)NC(=O)[C@@H]1CCC(=O)N1 [Compound 30, pGlu-His-Trp-Ser-Tyr-D-Nal-Trp-Tyr-Pro-Gly-amide] ([pGlu]HWSY[d2Nal]WYPG-NH2)
2 | 67 percentage | NC(=O)CNC(=O)[C@@H]1CCCN1C(=O)[C@H](Cc1ccc(O)cc1)NC(=O)[C@H](Cc1c[nH]c2ccccc12)NC(=O)[C@@H](Cc1ccc2ccccc2c1)NC(=O)[C@H](Cc1c[nH]cn1)NC(=O)[C@H](CO)NC(=O)[C@H](Cc1c[nH]c2ccccc12)NC(=O)[C@H](Cc1c[nH]cn1)NC(=O)[C@@H]1CCC(=O)N1 [Compound 33, pGlu-His-Trp-Ser-His-D-Nal-Trp-Tyr-Pro-Gly-amide] ([pGlu]HWSH[d2Nal]WYPG-NH2)
1 | 102 percentage | CCNC(=O)[C@@H]1CCCN1C(=O)[C@H](CCCNC(=N)N)NC(=O)[C@H](CC(C)C)NC(=O)[C@@H](CC(C)C)NC(=O)[C@H](Cc1c[nH]cn1)NC(=O)[C@H](CO)NC(=O)[C@H](Cc1c[nH]c2ccccc12)NC(=O)[C@H](Cc1c[nH]cn1)NC(=O)[C@@H]1CCC(=O)N1 [Compound 42, pGlu-His-Trp-Ser-His-D-Leu-Leu-Arg-Pro-NHEt] ([pGlu]HWSH[dL]LRP-NHEt)
3 | 112 percentage | CCNC(=O)[C@@H]1CCCN1C(=O)[C@H](Cc1ccc(O)cc1)NC(=O)[C@H](CC(C)C)NC(=O)[C@@H](Cc1cn(Cc2ccccc2)cn1)NC(=O)[C@H](Cc1c[nH]cn1)NC(=O)[C@H](CO)NC(=O)[C@H](Cc1c[nH]c2ccccc12)NC(=O)[C@H](Cc1c[nH]cn1)NC(=O)[C@@H]1CCC(=O)N1 [Compound 61, pGlu-His-Trp-Ser-His-D-Bhi-Leu-Tyr-Pro-NHEt] ([pGlu]HWSH[dHis(τ-Bn)]LYP-NHEt)
2 | 102 percentage | CCNC(=O)[C@@H]1CCCN1C(=O)[C@H](CCCNC(=N)N)NC(=O)[C@H](Cc1c[nH]c2ccccc12)NC(=O)[C@@H](Cc1cn(Cc2ccccc2)cn1)NC(=O)[C@H](Cc1c[nH]cn1)NC(=O)[C@H](CO)NC(=O)[C@H](Cc1c[nH]c2ccccc12)NC(=O)[C@H](Cc1c[nH]cn1)NC(=O)[C@@H]1CCC(=O)N1 [Compound 60, pGlu-His-Trp-Ser-His-D-Bhi-Trp-Arg-Pro-NHEt] ([pGlu]HWSH[dHis(τ-Bn)]WRP-NHEt)
1 | 106 percentage | CC(C)C[C@H](NC(=O)[C@@H](Cc1ccc2ccccc2c1)NC(=O)[C@H](Cc1c[nH]cn1)NC(=O)[C@H](CO)NC(=O)[C@H](Cc1c[nH]c2ccccc12)NC(=O)[C@H](Cc1c[nH]cn1)NC(=O)[C@@H]1CCC(=O)N1)C(=O)N[C@@H](CCCNC(=N)N)C(=O)N1CCC[C@H]1C(=O)NCC(N)=O [Compound 23, pGlu-His-Trp-Ser-His-D-Nal-Leu-Arg-Pro-Gly-amide] ([pGlu]HWSH[d2Nal]LRPG-NH2)
1 | 117 percentage | CCNC(=O)[C@@H]1CCCN1C(=O)[C@H](CCCNC(=N)N)NC(=O)[C@H](Cc1c[nH]c2ccccc12)NC(=O)[C@@H](Cc1cn(Cc2ccccc2)cn1)NC(=O)[C@H](Cc1ccc(O)cc1)NC(=O)[C@H](CO)NC(=O)[C@H](Cc1c[nH]c2ccccc12)NC(=O)[C@H](Cc1c[nH]cn1)NC(=O)[C@@H]1CCC(=O)N1 [Compound 67, pGlu-His-Trp-Ser-Tyr-D-Bhi-Trp-Arg-Pro-NHEt] ([pGlu]HWSY[dHis(τ-Bn)]WRP-NHEt)
1 | 76 percentage | CCNC(=O)[C@@H]1CCCN1C(=O)[C@H](Cc1ccc(O)cc1)NC(=O)[C@H](CC(C)C)NC(=O)[C@@H](COC(C)(C)C)NC(=O)[C@H](Cc1c[nH]cn1)NC(=O)[C@H](CO)NC(=O)[C@H](Cc1c[nH]c2ccccc12)NC(=O)[C@H](Cc1c[nH]cn1)NC(=O)[C@@H]1CCC(=O)N1 [Compound 11, pGlu-His-Trp-Ser-His-D-Ser(tBu)-Leu-Tyr-Pro-NHEt] ([pGlu]HWSH[dS](tBu)LYP-NHEt)
1 | 105 percentage | CCNC(=O)[C@@H]1CCCN1C(=O)[C@H](Cc1ccc(O)cc1)NC(=O)[C@H](Cc1c[nH]c2ccccc12)NC(=O)[C@@H](CC(C)C)NC(=O)[C@H](Cc1c[nH]cn1)NC(=O)[C@H](CO)NC(=O)[C@H](Cc1c[nH]c2ccccc12)NC(=O)[C@H](Cc1c[nH]cn1)NC(=O)[C@@H]1CCC(=O)N1 [Compound 50, pGlu-His-Trp-Ser-His-D-Leu-Trp-Tyr-Pro-NHEt] ([pGlu]HWSH[dL]WYP-NHEt)
2 | 111 percentage | CCNC(=O)[C@@H]1CCCN1C(=O)[C@H](CCCNC(=N)N)NC(=O)[C@H](Cc1c[nH]c2ccccc12)NC(=O)[C@@H](CC(C)C)NC(=O)[C@H](Cc1ccc(O)cc1)NC(=O)[C@H](CO)NC(=O)[C@H](Cc1c[nH]c2ccccc12)NC(=O)[C@H](Cc1c[nH]cn1)NC(=O)[C@@H]1CCC(=O)N1 [Compound 44, pGlu-His-Trp-Ser-Tyr-D-Leu-Trp-Arg-Pro-NHEt] ([pGlu]HWSY[dL]WRP-NHEt)
